Reference: US8901314B2, “Substituted pyrazoles as N-type calcium channel blockers” (Janssen Pharmaceutica NV, priority 2012, dated 2014)

Legend:
[1] = molecular target: α1B (Cav2.2), β3 and α2δ subunits of the N-type calcium channel (stable HEK cell line) (Rattus norvegicus, UniProt Q02294); experiment: Calcium-dye indicator assay (FDSS, KCl depolarization); assay type: cell-based; settings: calcium mobilization response to 50 mM KCl; six-point concentration-response
Procedure, shortened: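 HEK cells stably co-expressing α1B, β3 and α2δ subunits, loaded with calcium dye, exposed to compound for 5 min before 50 mM KCl depolarization, 3 min further read on FDSS. Maximal fluorescence normalized to KCl maximum and buffer minimum; IC50 by sigmoidal nonlinear regression.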

[2] = system: Cav2.2 (N-type calcium channel; α1B, α2δ and β3 subunits stably expressed in HEK293 cells); experiment: Automated electrophysiology assay (QPatch-HT patch clamp); assay type: cell-based; settings: 0.1 μM; for QPatch % Inhibition, High Freq: high frequency stimulation (15th pulse of 5 Hz train); for QPatch % Inhibition, Low Freq: low frequency stimulation (1st pulse of train)
Procedure, shortened: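 Whole-cell automated patch clamp of HEK293 cells stably expressing α1B, α2δ-1 and β3, with 10 mM Ba²⁺/TEA external solution and CsCl internal solution. From −80 mV, trains of 15 pulses to +20 mV at 5 Hz every 30 s. Pulse 1 and pulse 15 currents normalized to the no-compound control period, with CdCl2 used to zero the current.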

| SMILES | IC50 [1] | QPatch % Inhibition, High Freq [2] | QPatch % Inhibition, Low Freq [2] |
| --- | --- | --- | --- |
| COc1ccccc1-n1nc(C2CC(C)(C)OC(C)(C)C2)cc1-c1ccc(C#N)cc1 [Compound 2, 4-[1-(2-Methoxyphenyl)-3-(2,2,6,6-tetramethyltetrahydro-2H-pyran-4-yl)-1H-pyrazol-5-yl]-benzonitrile] | 1.1 nM | 53.5% | 56.5% |
| COc1ccccc1-n1nc(C2CC(C)(C)OC(C)(C)C2)cc1-c1ccc(Cl)cc1 [Compound 1, 5-(4-Chloro-phenyl)-1-(2-methoxy-phenyl)-3-(2,2,6,6-tetramethyl-tetrahydro-pyran-4-yl)-1H-pyrazole] | 1.7 nM | 63% | 58% |
| COc1ccccc1-n1nc(C2CC(C)(C)OC(C)(C)C2)cc1-c1ccc2c(c1)OCO2 [Compound 4, 5-(1,3-Benzodioxol-5-yl)-1-(2-methoxyphenyl)-3-(2,2,6,6-tetramethyltetrahydro-2H-pyran-4-yl)-1H-pyrazole] | 1 nM | 39% | 35% |
| CCOc1ccc(-c2cc(C3CC(C)(C)OC(C)(C)C3)nn2-c2ccccc2OC)cn1 [Compound 19, 2-Ethoxy-5-[1-(2-methoxyphenyl)-3-(2,2,6,6-tetramethyltetrahydro-2H-pyran-4-yl)-1H-pyrazol-5-yl]-pyridine] | 5.4 nM | 21% | 10% |
| COc1ccccc1-n1nc(C2CC(C)(C)OC(C)(C)C2)cc1-c1cc(C)cs1 [Compound 18, 1-(2-Methoxyphenyl)-5-(4-methylthiophen-2-yl)-3-(2,2,6,6-tetramethyltetrahydro-2H-pyran-4-yl)-1H-pyrazole] | 5.3 nM | 16% | −23% |
| COc1ccccc1-n1nc([C@H]2CCO[C@@H](C(C)C)C2)cc1-c1ccc(Cl)cc1 (relative stereo) [Compound 64, 5-(4-Chlorophenyl)-1-(2-methoxyphenyl)-3-[(cis)-2-(1-methylethyl)tetrahydro-2H-pyran-4-yl]-1H-pyrazole] | 7.2 nM | 55% | 18% |
| CC1(C)CC(c2cc(-c3ccc(Cl)cc3)n(-c3ccccc3N)n2)CC(C)(C)O1 [Compound 68, 2-[5-(4-Chlorophenyl)-3-(2,2,6,6-tetramethyltetrahydro-2H-pyran-4-yl)-1H-pyrazol-1-yl]aniline] | 20 nM | 14% | −9% |
| COc1cccc(-c2cc(C3CC(C)(C)OC(C)(C)C3)nn2-c2ccccc2OC)c1 [Compound 20, 1-(2-Methoxyphenyl)-5-(3-methoxyphenyl)-3-(2,2,6,6-tetramethyltetrahydro-2H-pyran-4-yl)-1H-pyrazole] | 5.5 nM | 45% | 38% |
| COc1ccccc1-n1nc(C2CC(C)(C)OC(C)(C)C2)cc1-c1ccc(C(C)(C)C)cc1 [Compound 15, 5-(4-tert-Butylphenyl)-1-(2-methoxyphenyl)-3-(2,2,6,6-tetramethyltetrahydro-2H-pyran-4-yl)-1H-pyrazole] | 4.9 nM | 37% | 20% |
| COc1ccccc1-n1nc(C2CC(C)(C)OC(C)(C)C2)cc1-c1ccccc1N [Compound 22, 2-[1-(2-Methoxyphenyl)-3-(2,2,6,6-tetramethyltetrahydro-2H-pyran-4-yl)-1H-pyrazol-5-yl]-aniline] | 6 nM | 0% | 0% |
| COc1ccccc1-n1nc(C2CC(C)(C)OC(C)(C)C2)cc1-c1ccc(OCCN2CCOCC2)cc1 [Compound 72, 4-(2-{4-[1-(2-Methoxyphenyl)-3-(2,2,6,6-tetramethyltetrahydro-2H-pyran-4-yl)-1H-pyrazol-5-yl]phenoxy}ethyl)morpholine] | 38 nM | 11% | 4% |
| COc1ccccc1-n1nc(C2CC(C)(C)OC(C)(C)C2)c(Br)c1-c1ccc(Cl)cc1 [Compound 70, 4-Bromo-5-(4-chlorophenyl)-1-(2-methoxyphenyl)-3-(2,2,6,6-tetramethyltetrahydro-2H-pyran-4-yl)-1H-pyrazole] | 24 nM | 25% | 24% |
| COc1ccccc1-n1nc(C2CC(C)(C)OC(C)(C)C2)cc1-c1ccccc1 [Compound 16, 1-(2-Methoxyphenyl)-5-phenyl-3-(2,2,6,6-tetramethyltetrahydro-2H-pyran-4-yl)-1H-pyrazole] | 5.1 nM | 51% | 37% |
| COc1ccccc1-n1nc(C2CC(C)(C)OC(C)(C)C2)cc1-c1ccc(C)cc1 [Compound 10, 1-(2-Methoxyphenyl)-5-(4-methylphenyl)-3-(2,2,6,6-tetramethyltetrahydro-2H-pyran-4-yl)-1H-pyrazole] | 2 nM | 38% | 46% |
| COc1ccccc1-n1nc([C@H]2C[C@@H](C)O[C@@H](C)C2)cc1-c1ccc(Cl)cc1 [Compound 63, 5-(4-Chlorophenyl)-3-[(2R,4r,6S)-2,6-dimethyltetrahydro-2H-pyran-4-yl]-1-(2-methoxyphenyl)-1H-pyrazole] | 2.5 nM | 74.5% | 60% |
| CCOC(=O)c1ccc(-c2cc(C3CC(C)(C)OC(C)(C)C3)nn2-c2ccccc2OC)cc1 [Compound 17, Ethyl 4-[1-(2-methoxyphenyl)-3-(2,2,6,6-tetramethyltetrahydro-2H-pyran-4-yl)-1H-pyrazol-5-yl]benzoate] | 5.1 nM | 82% | 84% |
| COc1ccccc1-n1nc(C2=CC(C)(C)OC(C)(C)C2)cc1-c1ccc(Cl)cc1 [Compound 95, 5-(4-Chlorophenyl)-1-(2-methoxyphenyl)-3-(2,2,6,6-tetramethyl-3,6-dihydro-2H-pyran-4-yl)-1H-pyrazole] | 3.4 nM | 26% | 14% |
| COc1ccccc1-n1nc(C2CC(C)(C)OC(C)(C)C2)cc1-c1ccc(C(C)=O)cc1 [Compound 12, 1-{4-[1-(2-Methoxyphenyl)-3-(2,2,6,6-tetramethyltetrahydro-2H-pyran-4-yl)-1H-pyrazol-5-yl]phenyl}ethanone] | 2.6 nM | 41% | 30% |
| COc1ccccc1-n1nc(C2CC(C)(C)OC(C)(C)C2)cc1-c1ccc(C)nc1 [Compound 23, 5-[1-(2-Methoxyphenyl)-3-(2,2,6,6-tetramethyltetrahydro-2H-pyran-4-yl)-1H-pyrazol-5-yl]-2-methylpyridine] | 6.2 nM | −8% | −19% |
| CC1(C)CC(c2cc(-c3ccc(Cl)cc3)n(-c3ccccc3[N+](=O)[O-])n2)CC(C)(C)O1 [Compound 65, 5-(4-Chlorophenyl)-1-(2-nitrophenyl)-3-(2,2,6,6-tetramethyltetrahydro-2H-pyran-4-yl)-1H-pyrazole] | 7.8 nM | 50% | 44% |
| COc1ccccc1-n1nc(C2=C[C@H](C)O[C@@H](C)C2)cc1-c1ccc(Cl)cc1 (relative stereo) [Compound 96, 5-(4-Chlorophenyl)-3-[(trans)-2,6-dimethyl-3,6-dihydro-2H-pyran-4-yl]-1-(2-methoxyphenyl)-1H-pyrazole] | 8.2 nM | 29% | −20% |
| COc1ccc(-c2cc(C3CC(C)(C)OC(C)(C)C3)nn2-c2ccccc2OC)cc1 [Compound 5, 1-(2-Methoxyphenyl)-5-(4-methoxyphenyl)-3-(2,2,6,6-tetramethyltetrahydro-2H-pyran-4-yl)-1H-pyrazole] | 1.3 nM | 67% | 59% |
